Source: US9714245B2, “Carboline compounds usable in the treatment of neurodegenerative diseases” (ALZPROTECT, priority 2013, dated 2017)

Legend:
sAPPα = assay: Soluble APPα quantification (ELISA); format: cell-based, Human; conditions: 24 h, control considered as 100
Protocol: Soluble APPα Quantification
Human neuroblastoma cell line SKNSH-SYSY APP′ was cultured in Dulbecco's modified Eagle medium (Invitrogen) supplemented with 10% fetal calf serum (PAA), 2 mM L-glutamine (Invitrogen), 1 mM non-essential amino acids (Invitrogen), 50 units/ml penicillin/streptomycin (Invitrogen), and 200 μg G418=geneticin (Invitrogen) (selection for cell expressing APP) in a 5% CO2 humidified incubator at 37° C. Cells were counted and seed at 400000 cells/well into a 12-wells plate for 24 h. The day after, cells were treated with 700 μL/well of drug at 0.3; 1; 3 and 10 μM and incubated for 24 h in a 5% CO2 incubator at 37° C. After treatment, culture medium samples were collected and stored at −80° C. until analysis. Samples corresponding to the 1 and 10 μM treatment were centrifuged 1500 rpm for 5 min at 4° C. sAPPα quantification by ELISA was done with Human sAPPα Assay Kit-IBL (Cat#27734) in accordance with manufacturer's protocol. Samples were diluted at 1:150 in the diluent buffer provided in the kit. Each sample was loaded in duplicate onto the 96 well-plate. Results are expressed in ng/ml and then compared to control conditions (considered as 100 in arbitrary units) and are presented for two concentrations of the drug: 1 and 10 μM.

AICD = assay: Quantification of AICD by Western blot in SY5Y-APPWT cells; format: cell-based, Human; conditions: compared to a control with a value of 100
Protocol: Quantifications of APP-CTFs and AICD
After treatment, SY5Y-APP^WT cells were scrapped and lysed in 1× Lysis Buffer (250 mM NaCl, 50 mM Tris, pH 8.8, 5 mM EDTA, 2.5% Triton X-100, 1% Deoxycholate, 0.1% SDS). For the Western blotting, an equal amount of total proteins (20 μg/lane) was loaded on a 16.5% Tris-Tricine or 8-16% Tris-Glycine polyacrylamide gel.
SDS-polyacrylamide gel electrophoresis (PAGE) was performed using the Criterion™ Tris-Tricine-precast or Bis-Tris-precast criterion gels (Bio-Rad Bioresearch division). Proteins were transferred to a […] nitrocellulose membrane (Hybond, Amersham Biosciences) at 2.5 mA/cm2 per gel using the Criterion™ Blotter system (Amersham Biosciences), according to the manufacturer's instructions. Proteins were reversibly stained with Ponceau Red in order to check the quality of the transfer of protein. The membranes were blocked in 25 mM Tris-HCl pH 8.0, 150 mM NaCl, 0.1% Tween-20 (v/v) and 5% (w/v) of skimmed milk for 30 min. Membranes were incubated overnight at 4° C. with appropriate dilution of the primary antibodies, and were incubated for 1 h at room temperature with secondary antibody. […] Quantifications were calculated with Image J software (NIH) and the data were collected using Excel Software (Microsoft). The loading variations between Western blot lanes were normalized according to the tubulin signal. Quantification of CTFα and AICD were compared to control conditions (considered as 100 in arbitrary units) and are presented for two concentrations of the drug: 1 and 10 μM.

CTFα = assay: In vivo chronic treatment, CTFα in brain tissue; set-up: species or system C57Bl6 mice; conditions: 12 weeks in drinking water, 3 mg/kg
Protocol: In Vivo Chronic Treatment
Female C57Bl6 mice of 4 month-old were treated with either vehicle (control) or drug at 1 and 3 mg/kg (n=10 per group) for 12 weeks in drinking water. First of all, all mice were weighted and distributed in each cage in order to have approximately the same average of weight±SD per cage. Each concentration of product as well as vehicule was prepared in sterile bottles and the bottles were kept at room temperature protected from light. The drinking bottles were filled weekly and weighted. Volume consumed was calculated by weighting each bottle after each week and the remaining volume was discarded. After 12 weeks, mice were sacrificed and their troncal blood was collected and stored at 4° C. Brains were immediately removed to dissect the Frontal Cortex, the Cortex around the Hippocampus and the Hippocampus. These areas were stored at −80° C. until use. Blood was then centrifuged at 2100×g for 5 min. Resulting plasma was used to quantify the circulating drug and brain tissues were used for biochemical determinations (PFC: prefrontal cortex and HIP: hippocampus).

secreted Aβ1-42 = assay: Aβ1-42 secretion by APP-transfected neuroblastoma cells (ELISA); format: cell-based; conditions: Homo sapiens, Neuroblastoma cell; SKNSH-SYSY APPWT cells; concentration decreasing secreted Aβ1-42 to 50% of basal amount
Protocol: (§1) Cell Cultures and Transfections to Test Activity on Aβ1-40 and Aβ1-42 Secretion
(§2) Human neuroblastoma cell line SKNSH-SYSY (ATCC® Catalog No. CRL-2266™), HEK (ATCC® CRL-1573™) and COS-1 (ATCC® CRL-1650™) cells were maintained in Dulbecco's modified Eagle medium (DMEM, GIBCO BRL) supplemented with 10% fetal calf serum, 2 mM L-glutamine, 1 mM non-essential amino acids, 50 units/ml penicillin/streptomycin (Invitrogen, France) in a 5% CO2 humidified incubator at 37° C. APP695 cDNA was subcloned into eukaryotic expression vector pcDNA3 (Invitrogen), allowing for a G418 (Invitrogen) selection of clones. This APP cDNA coding for the 695 amino acid long isoform was transfected into SKNSH-SYSY cells using the ethyleneimine polymer ExGen 500 (Euromedex) according to the manufacturer's instructions. The cells expressing APP (SKNSH-SYSY APP^WT) were selected by the addition of 200 μg/ml G418 in the cell medium. To quantify AR which released in the cell culture medium, the collected medium was spun at 200×g to eliminate the cell debris. The concentrations of secreted Aâ1-40 and Aβ1-42 were determined using the Human Aβ (1-40) Assay Kit (IBL) or the INNOTEST™ beta-Amyloid (1-42) ELISA Kit (Innogenetics), according to manufacturer's instructions. The results were expressed as IC50, i.e. the concentration able to decrease to 50% the basal amount of secreted Aβ peptide 1-40 and 1-42.

[1] = Cytotoxicity evaluation (MTS assay); format: cell-based, Human; conditions: human, SY5Y-APPWT neuroblastoma cells (expressing APP); SY5Y-APPWT cells, 24 h treatment, MTS
Protocol: (§3) Human neuroblastoma cell line SY5Y-APP^WT was used to assess the cytotoxic effects of each compound. SY5Y-APP^WT cells were seeded at 20000 cells/well onto 96-well plates and were cultured in Dulbecco's modified Eagle medium (DMEM, Invitrogen) supplemented with 10% fetal calf serum (PAA), 2 mM L-glutamine (Invitrogen), 1 mM non-essential amino acids (Invitrogen), 50 units/ml penicillin/streptomycin (Invitrogen), and 200 μg G418=geneticin (Invitrogen) (selection for cells expressing APP) in a 5% CO2 humidified incubator at 37° C. After 24 h, the cells were washed and incubated with the compound at 0.1; 0.3; 1; 3; 10; 30 and 100 μM or with DMSO as control diluted in the same culture medium at 37° C. in 5% CO2. After 24 h of treatment, cytotoxicity was determined by using colorimetric MTS assay (CellTiter 96® Aqueous One Solution Cell Proliferation Assay-MTS Promega) according to the protocol of the manufacturer. Absorbance was read at 490 nm and results were expressed as % from control condition considered as 100%.

SY5Y-APPWT cells = assay: Cytotoxicity evaluation (MTS assay); format: cell-based, Human; conditions: comparative statement
Protocol: as §3

secreted Aβ1-40 = assay: Aβ1-40 secretion by APP-transfected neuroblastoma cells (ELISA); format: cell-based; conditions: Homo sapiens, Neuroblastoma cell; SKNSH-SYSY APPWT cells; concentration decreasing secreted Aβ1-40 to 50% of basal amount
Protocol: as §1, §2

[2] = Metabolic stability (method not described); conditions: comparative statement

IC50 (secreted Aβ1-42): 1000 nM
IC50 (secreted Aβ1-40): 3000 nM
metabolic stability (in words) [2]: metabolically more stable
SMILES: Fc1ccc2[nH]c3c(c2c1)CN(CCCN1CCN(CCCN2CCCC2)CC1)CC3 [Compound 3.1f, 8-Fluoro-2-{3-[4-(3-(pyrrolidin-1-yl)propyl)piperazin-1-yl]propyl}-2,3,4,5-tetrahydro-1H-pyrido[4,3-b]indole]
sAPPα (10 μM) (sAPPα): 100 arbitrary units
AICD (10 μM) (AICD): 1011 arbitrary units
increase of CTFα in hippocampus (HIP) (CTFα): 25%
increase of CTFα in prefrontal cortex (PFC) (CTFα): 20%
CC50 at 24 h [1]: > 100 µM
toxicity (in words) (SY5Y-APPWT cells): less toxic
